Measured values taken from patent publication US10294202B2, “Pyrrolidinones as herbicides” (FMC Corporation, priority 2013, dated 2019).

What was measured:
[1] = system: crabgrass, large; test: Test A pre-/postemergence herbicide test; type: in vivo, Digitaria sanguinalis
How it was run: (§1)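 Approximately 10 days after treatment in the greenhouse, plants were compared with untreated controls and given a 0–100 visual injury rating. Applications: preemergence directed soil spray; postemergence on 2–10 cm plants at the one- to two-leaf stage.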

[2] = system: barnyardgrass; test: Test A pre-/postemergence herbicide test; type: in vivo, Echinochloa crus-galli
How it was run: as §1

[3] = system: corn; test: Test A pre-/postemergence herbicide test; type: in vivo, Zea mays
How it was run: as §1

[4] = system: barnyardgrass; test: Test B flooded paddy test; type: in vivo, Echinochloa crus-galli; conditions: 1000 g ai/ha, Flood; scale of 0 to 100 where 0 is no effect and 100 is complete control
How it was run: (§2)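 Scored visually 0–100 (0 no effect, 100 complete control) versus controls after 13 to 15 greenhouse days. Treatment: compound added to paddy water kept 3 cm above soil, on 2-leaf-stage plants.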

[5] = system: giant foxtail; test: Test A pre-/postemergence herbicide test; type: in vivo, Setaria faberii
How it was run: as §1

[6] = system: morningglory; test: Test A pre-/postemergence herbicide test; type: in vivo, Ipomoea spp.
How it was run: as §1

[7] = system: sedge, umbrella; test: Test B flooded paddy test; type: in vivo, Cyperus difformis; conditions: 1000 g ai/ha, Flood; scale of 0 to 100 where 0 is no effect and 100 is complete control
How it was run: as §2

[8] = system: wheat; test: Test A pre-/postemergence herbicide test; type: in vivo, Triticum aestivum
How it was run: as §1

[9] = system: pigweed; test: Test A pre-/postemergence herbicide test; type: in vivo, Amaranthus retroflexus
How it was run: as §1

[10] = system: rice; test: Test B flooded paddy test; type: in vivo, Oryza sativa; conditions: 1000 g ai/ha, Flood; scale of 0 to 100 where 0 is no effect and 100 is complete control
How it was run: as §2

[11] = system: velvetleaf; test: Test A pre-/postemergence herbicide test; type: in vivo, Abutilon theophrasti
How it was run: as §1

[12] = system: ducksalad; test: Test B flooded paddy test; type: in vivo, Heteranthera limosa; conditions: 1000 g ai/ha, Flood; scale of 0 to 100 where 0 is no effect and 100 is complete control
How it was run: as §2

[13] = 125 g ai/ha, visual rating, 0 to 100 scale, 0 no effect, 100 complete control, approximately 10 days, preemergence
[14] = Postemergence, 125 g ai/ha, 0 to 100 scale, 0 no effect, 100 complete control
[15] = preemergence, 500 g ai/ha, 0 to 100 scale
[16] = Postemergence, 500 g ai/ha, 0 to 100 scale (0 no effect, 100 complete control)
[17] = preemergence, 500 g ai/ha, 0 to 100 scale (0 no effect, 100 complete control)
[18] = Postemergence, 1000 g ai/ha, 0 to 100 scale (0 no effect, 100 complete control)
[19] = preemergence, 1000 g ai/ha, 0 to 100 scale

SMILES: O=C1NCC(c2ccc3ccccc3c2)C1C(=O)Nc1cccc(F)c1F (racemic) [Compound 116]
- Plant response rating, Crabgrass, Large [1, 13]: 70
- Plant response rating, Crabgrass, Large [1, 14]: 20
- Crabgrass, Large plant response rating (0 to 100 scale, 0 is no effect, 100 is complete control) ([1]; Postemergence, 500 g ai/ha): 30
- Plant response rating, Crabgrass, Large [1, 15]: 80
- Plant response rating, Barnyardgrass [2, 13]: 0
- Plant response rating, Barnyardgrass [2, 16]: 40
- Plant response rating, Barnyardgrass [2, 17]: 50
- Plant response rating, Corn [3, 13]: 0
- Plant response rating, Corn [3, 14]: 0
- Plant response rating, Corn [3, 16]: 20
- Plant response rating, Corn [3, 15]: 0
- Plant response rating, Barnyardgrass [4]: 20
- Plant response rating, Foxtail, Giant [5, 13]: 0
- Plant response rating, Foxtail, Giant [5, 14]: 0
- Foxtail, Giant plant response rating (0 to 100 scale, 0 is no effect, 100 is complete control) ([5]; Postemergence, 500 g ai/ha): 20
- Plant response rating, Foxtail, Giant [5, 15]: 30
- Plant response rating, Morningglory [6, 13]: 0
- Plant response rating, Morningglory [6, 14]: 0
- Morningglory plant response rating (0 to 100 scale, 0 is no effect, 100 is complete control) ([6]; Postemergence, 500 g ai/ha): 0
- Plant response rating, Morningglory [6, 15]: 0
- Plant response rating, Sedge, Umbrella [7]: 0
- Plant response rating, Wheat [8, 13]: 0
- Plant response rating, Wheat [8, 14]: 0
- Wheat plant response rating (0 to 100 scale, 0 is no effect, 100 is complete control) ([8]; Postemergence, 500 g ai/ha): 0
- Plant response rating, Wheat [8, 15]: 0
- Plant response rating, Pigweed [9, 13]: 0
- Plant response rating, Pigweed [9, 14]: 0
- Pigweed plant response rating (0 to 100 scale, 0 is no effect, 100 is complete control) ([9]; Postemergence, 500 g ai/ha): 0
- Plant response rating, Pigweed [9, 15]: 0
- Plant response rating, Rice [10]: 15
- Plant response rating, Velvetleaf [11, 13]: 0
- Plant response rating, Velvetleaf [11, 14]: 0
- Velvetleaf plant response rating (0 to 100 scale, 0 is no effect, 100 is complete control) ([11]; Postemergence, 500 g ai/ha): 0
- Plant response rating, Velvetleaf [11, 15]: 0
- Plant response rating, Ducksalad [12]: 80

SMILES: O=C1NCC(c2ccc3ccccc3c2)C1C(=O)Nc1ccccc1C(F)(F)F (racemic) [Compound 117]
- Plant response rating, Crabgrass, Large [1, 13]: 60
- Plant response rating, Crabgrass, Large [1, 14]: 30
- Crabgrass, Large plant response rating (0 to 100 scale, 0 is no effect, 100 is complete control) ([1]; Postemergence, 500 g ai/ha): 60
- Plant response rating, Crabgrass, Large [1, 15]: 80
- Plant response rating, Barnyardgrass [2, 13]: 0
- Plant response rating, Barnyardgrass [2, 14]: 0
- Plant response rating, Barnyardgrass [2, 16]: 30
- Plant response rating, Barnyardgrass [2, 17]: 20
- Plant response rating, Corn [3, 13]: 0
- Plant response rating, Corn [3, 14]: 0
- Plant response rating, Corn [3, 16]: 20
- Plant response rating, Corn [3, 15]: 0
- Plant response rating, Barnyardgrass [4]: 40
- Plant response rating, Foxtail, Giant [5, 13]: 20
- Plant response rating, Foxtail, Giant [5, 14]: 20
- Foxtail, Giant plant response rating (0 to 100 scale, 0 is no effect, 100 is complete control) ([5]; Postemergence, 500 g ai/ha): 50
- Plant response rating, Foxtail, Giant [5, 15]: 70
- Plant response rating, Morningglory [6, 13]: 0
- Plant response rating, Morningglory [6, 14]: 0
- Morningglory plant response rating (0 to 100 scale, 0 is no effect, 100 is complete control) ([6]; Postemergence, 500 g ai/ha): 0
- Plant response rating, Morningglory [6, 15]: 0
- Plant response rating, Sedge, Umbrella [7]: 0
- Plant response rating, Wheat [8, 13]: 0
- Plant response rating, Wheat [8, 14]: 0
- Wheat plant response rating (0 to 100 scale, 0 is no effect, 100 is complete control) ([8]; Postemergence, 500 g ai/ha): 0
- Plant response rating, Wheat [8, 15]: 0
- Plant response rating, Pigweed [9, 13]: 0
- Plant response rating, Pigweed [9, 14]: 0
- Pigweed plant response rating (0 to 100 scale, 0 is no effect, 100 is complete control) ([9]; Postemergence, 500 g ai/ha): 0
- Plant response rating, Pigweed [9, 15]: 0
- Plant response rating, Rice [10]: 0
- Plant response rating, Velvetleaf [11, 13]: 0
- Plant response rating, Velvetleaf [11, 14]: 0
- Velvetleaf plant response rating (0 to 100 scale, 0 is no effect, 100 is complete control) ([11]; Postemergence, 500 g ai/ha): 0
- Plant response rating, Velvetleaf [11, 15]: 0
- Plant response rating, Ducksalad [12]: 90

SMILES: O=C1NCC(c2ccc(F)c(F)c2)C1C(=O)Nc1ccc(F)cc1 (racemic) [Compound 193]
- Plant response rating, Crabgrass, Large [1, 18]: 90
- Plant response rating, Crabgrass, Large [1, 19]: 100
- Plant response rating, Barnyardgrass [2, 18]: 90
- Plant response rating, Barnyardgrass ([2]; preemergence, 1000 g ai/ha, 0 to 100 scale (0 no effect, 100 complete control)): 80
- Plant response rating, Corn [3, 18]: 0
- Plant response rating, Corn [3, 19]: 0
- Plant response rating, Barnyardgrass [4]: 0
- Plant response rating, Foxtail, Giant [5, 18]: 80
- Plant response rating, Foxtail, Giant [5, 19]: 90
- Plant response rating, Morningglory [6, 18]: 0
- Plant response rating, Morningglory [6, 19]: 0
- Plant response rating, Sedge, Umbrella [7]: 20
- Plant response rating, Wheat [8, 18]: 0
- Plant response rating, Wheat [8, 19]: 0
- Plant response rating, Pigweed [9, 18]: 0
- Plant response rating, Pigweed [9, 19]: 0
- Plant response rating, Rice [10]: 20
- Plant response rating, Velvetleaf [11, 18]: 0
- Plant response rating, Velvetleaf [11, 19]: 0
- Plant response rating, Ducksalad [12]: 60
